According to US5719151A, “Substituted benzene compounds” (priority 1990, dated 1998):

Legend:
[1] = target: T1, poly(ADP-ribose)polymerase (Homo sapiens, UniProt P09874); experiment: Determination of inhibitory effect on poly(ADP-ribose)polymerase (enzyme activity, Ki, Km); type: biochemical; conditions: for Ki: poly(ADP-ribose)polymerase, read-out: Ki (Inhibition Constant); for inhibition at 5 µM / inhibition at 1 µM / inhibition at 2.5 µM: read-out: Inhibitor Activity (%)
Protocol: The enzyme activity was assayed by standard procedures (Murray, B. et al., Mutation Research (1986) 165:191-198). This reference also describes the estimation of the Km (Michaelis Constant) values. The estimation of the Ki (inhibitory constant) values was performed by calculating the Km value in the presence or absence of known concentrations of the enzyme inhibitor. Standard biochemical calculations were then used to calculate the Ki value. The smaller K1 values indicate stronger inhibition. The degree of enzyme inhibition shown in the Table was estimated by measuring the enzyme activity in the presence and absence of the indicated concentrations of inhibitor.

[2] = test system: nuclear poly(ADP-Ribose)polymerase; conditions: Oikawa 1980; Lindahl-Kiessling & Shall 1987; cited from earlier work
[3] = target: T1, poly(ADP-ribose)polymerase; conditions: Farzeneh 1988, cited from earlier work
[4] = target: T1, poly(ADP-ribose)polymerase; experiment: Formation of covalent compounds (with the enzyme); type: biochemical; conditions: for covalent compound with the enzyme: specific covalent inhibition
[5] = test system: Trypanosoma brucei rhodesiense; experiment: Growth of Trypanosoma brucei rhodesiense in axenic culture (growth inhibition); type: cell-based
Protocol: 1. TRYPANOSOMES: Stabilates of two clones, GUP 2889 and GUP 2814 were used.
Prior to propagation in vitro cell free culture conditions the parasites from stabilates were expanded in CD1 (8-9 week old) female mice. Infected mouse blood obtained by cardiac puncture in EMEM* with 20 U/ml heparin was used for the preparation of blood smears for immunofluorescence analysis.
Antibody mediated lysis of a specific VAT of bloodstream form trypanosomes was performed by incubating an appropriate aliquot of a recently prepared trypanosome suspension at room temperature for 1 hour, in appropriately diluted specific antibody and guinea pig complement. The trypanosomes were observed and counted with inverted phase-contrast microscopy at a magnification of 150× to check for viability and to observe lysed trypanosomes, which appeared stumpy and vacuolated.
Cultures were initiated with aliquots of the above prepared trypanosome suspension. Duplicate T25 flasks, with 10 ml of medium were prepared for each experimental parameter examined. In each experiment the trypanosome density was determined at the initiation of the culture and at the end of the axenic culture period (usually after 18-24 hours) using a Neubaurer haemocytometer.
The instantaneous rate of switching/cell/generation, σi, has been calculated. These values of σ are estimates of the per capita rate for switching to minor VATs. However, these estimates have been made in populations manipulated to consist of a major VAT, the prevalence of which is much higher than that of minor VATs; switching from minor to major VATs has therefore been assumed to be negligible, as has interswitching between minor VATs. Growth rates, r, have been expressed as population doubling times Td, where Td=loge2/r. Switching rates values are presented in the tables as finite, of, rate estimates.
Two clones of Trypanosoma brucei rhodesiense, GUP 2889 and […] were initiated in culture with viable trypanosomes after in vitro trypanolysis of heterotype VAT 1.22 with GUPM 27.1 monoclonal antibody. Viable populations of these trypanosomes were incubated with various concentrations of the poly(ADP-Ribose)polymerase inhibitors. The effect of each concentration of inhibitor was tested in duplicate in T25 culture flasks set up for the axenic culture inhibition experiments. Growth was monitored after 24 hours of incubation at 37° C. in 4-5% CO2 in air. Relative growth inhibition and frequency of antigenic switching of were calculated.
In this assay a continuously growing bloodstream form trypanosome population was incubated in serial inhibitor dilutions in T25 culture flasks using an inoculum of 2×10^4 ·1×10^5 trypanosomes per ml. After an incubation period of 24-48 hours in axenic culture at 37° C. in a 4-5% CO2 incubator, trypanosomes were counted using a haemocytometer and growth inhibition was determined based on the number of generations (kt) of inhibitor treated cultures compared to controls. […] Growth is reduced by up to 17% when 3-N-formylluminol(3-N-FL) is present in the concentration range of 50-400 μM, Table 7.

[6] = target: T1, poly(ADP-ribose)polymerase; conditions: X-ray or bleomycin exposure; cited from earlier work
[7] = test system: NC(=O)c1ccc[n+]([C@@H]2O[C@H](COP(=O)([O-])OP(=O)(O)OC[C@H]3O[C@@H](n4cnc5c(N)ncnc54)[C@H](O)[C@@H]3O)[C@@H](O)[C@H]2O)c1; experiment: Determination of inhibitory effect on poly(ADP-ribose)polymerase (enzyme activity, Ki, Km); type: biochemical; conditions: other: same assay as Table 5

T1 sequence (P09874 whole entry): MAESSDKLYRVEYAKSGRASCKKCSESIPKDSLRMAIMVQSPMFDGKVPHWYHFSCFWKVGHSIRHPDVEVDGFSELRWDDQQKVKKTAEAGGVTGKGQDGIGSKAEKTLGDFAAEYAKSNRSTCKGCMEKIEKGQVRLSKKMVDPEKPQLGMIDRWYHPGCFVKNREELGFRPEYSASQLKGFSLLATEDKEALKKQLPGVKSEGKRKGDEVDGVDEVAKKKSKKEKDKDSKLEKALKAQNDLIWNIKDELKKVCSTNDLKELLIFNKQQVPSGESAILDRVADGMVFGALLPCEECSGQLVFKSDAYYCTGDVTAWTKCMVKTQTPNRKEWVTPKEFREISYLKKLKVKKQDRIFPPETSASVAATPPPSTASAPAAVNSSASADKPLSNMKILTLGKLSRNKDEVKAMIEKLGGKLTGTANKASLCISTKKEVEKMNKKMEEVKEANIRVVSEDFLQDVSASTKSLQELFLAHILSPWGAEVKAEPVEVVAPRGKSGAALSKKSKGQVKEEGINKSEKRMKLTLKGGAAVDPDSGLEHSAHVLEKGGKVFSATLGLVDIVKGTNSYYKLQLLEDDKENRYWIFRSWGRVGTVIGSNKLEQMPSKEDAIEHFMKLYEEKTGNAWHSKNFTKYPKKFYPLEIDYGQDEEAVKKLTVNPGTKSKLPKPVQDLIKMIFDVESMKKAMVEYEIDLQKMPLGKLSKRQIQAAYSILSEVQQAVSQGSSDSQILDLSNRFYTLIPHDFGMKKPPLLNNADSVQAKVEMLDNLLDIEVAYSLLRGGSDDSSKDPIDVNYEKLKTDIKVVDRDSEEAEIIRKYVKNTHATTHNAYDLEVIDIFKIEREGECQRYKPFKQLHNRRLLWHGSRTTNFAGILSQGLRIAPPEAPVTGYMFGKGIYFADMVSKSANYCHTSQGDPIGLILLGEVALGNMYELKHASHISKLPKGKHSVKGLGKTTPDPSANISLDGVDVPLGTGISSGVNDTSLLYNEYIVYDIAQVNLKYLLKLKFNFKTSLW

## CC(=O)Nc1cccc(C(N)=O)c1 [3-acetylaminobenzamide, reference compound]
[1]
  Ki: 3200 ± 410 nM

## NC(=O)c1cccc(N)c1 [3-aminobenzamide]
[2]
  spontaneous sister chromatid exchanges: large increase in spontaneous sister chromatid exchanges

## COc1cccc(C(N)=O)c1 [3-methoxybenzamide]
[3]; non-homologous/illegitimate DNA recombination
  integration of foreign DNA into the genome: blocked the integration of foreign DNA into the genome
[3]; introduced via plasmids
  uptake and expression of foreign DNA: not affected

## CCC(=O)Nc1cccc(C(N)=O)c1 [3-propionylaminobenzamide, reference compound]
[1]
  Ki: 2490 ± 300 nM

## C=CC(=O)Nc1cccc(C(N)=O)c1 [Compound 4, 3-propenoylaminobenzamide]
[4]
  covalent compound with the enzyme: act by forming a covalent compound with the enzyme specifically and thus inhibit the enzyme

## NC(=O)c1cccc(NC(=O)CCCl)c1 [Compound 7]
[4]
  covalent compound with the enzyme: act by forming a covalent compound with the enzyme specifically and thus inhibit the enzyme

## NC(=O)Nc1cccc(C(N)=O)c1 [Compound 8, 3-ureidobenzamide]
[1]
  inhibition at 5 µM: 61%

## CNC(=O)Nc1cccc(C(N)=O)c1 [Compound 9, 3-methylureidobenzamide]
[1]
  inhibition at 5 µM: 61%

## C=CC(=O)Nc1cccc(C(=O)O)c1 [Compound 12, 3-propenoylaminobenzoic acid]
[1]
  enzyme inhibition (in words): not enzyme inhibitors
[4]
  ability to form covalent compounds: form covalent compounds

## NC(=O)c1cccc(NC(=O)CCl)c1 [Compound 14, 3-chloroacetylaminobenzamide]
[4]
  covalent compound with the enzyme: act by forming a covalent compound with the enzyme specifically and thus inhibit the enzyme

## NC(=O)c1cccc(NC(=O)CBr)c1 [Compound 15, 3-bromoacetylaminobenzamide]
[4]
  covalent compound with the enzyme: act by forming a covalent compound with the enzyme specifically and thus inhibit the enzyme

## NC(=O)c1cccc(NC(=O)CCBr)c1 [Compound 16]
[4]
  covalent compound with the enzyme: act by forming a covalent compound with the enzyme specifically and thus inhibit the enzyme

## CN(N=O)C(=O)Nc1cccc(C(N)=O)c1 [Compound 19, 3(N-methyl,N-nitroso ureido)benzamide]
[4]
  covalent compound with the enzyme: act by forming a covalent compound with the enzyme specifically and thus inhibit the enzyme

## CN(N=O)C(=O)Nc1ccc(C(N)=O)cc1 [Compound 20, 4(N-methyl,N-nitroso ureido)benzamide]
[1]
  enzyme inhibition (in words): not enzyme inhibitors
[4]
  ability to form covalent compounds: form covalent compounds

## CCOC(=O)c1cccc(NC(=O)N(C)N=O)c1 [Compound 21, Ethyl,3-(N-methyl,N-nitrosoureido)benzoate]
[1]
  enzyme inhibition (in words): not enzyme inhibitors
[4]
  ability to form covalent compounds: form covalent compounds

## O=CNc1cccc2c(=O)[nH][nH]c(=O)c12 [Compound 22, 5-formylamino-2,3-dihydro-1,4-phthalazinedione]
[1]
  inhibition at 1 µM: 54%
  inhibition at 2.5 µM: 71%
  Ki: 518 ± 40 nM
[5]; 50-400 μM
  growth reduced by up to: up to 17%
[5]; Trypanosoma brucei, RHODESIENSE, 50 μM, n = 8, control 1.00, read-out: Relative Growth Rate (S.D., n)
  activity at 50 µM: 121 ± 13%
[5]; Trypanosoma brucei, RHODESIENSE, 100 μM, n = 8, control 1.00, read-out: Relative Growth Rate (S.D., n)
  activity at 100 µM: 91 ± 22%
[5]; Trypanosoma brucei, RHODESIENSE, 250 μM, n = 8, control 1.00, read-out: Relative Growth Rate (S.D., n)
  activity at 250 µM: 83 ± 42%
[5]; Trypanosoma brucei, RHODESIENSE, 400 μM, n = 4, control 1.00, read-out: Relative Growth Rate (S.D., n)
  activity at 400 µM: 85 ± 4%

## N=C(N)Nc1cccc(C(N)=O)c1 [Compound 26, 3-(guanidino)benzamide]
[1]
  inhibition at 5 µM: 32%

## O=c1[nH]nc(O)c2cccc(O)c12 [Compound 27, 1,5-dihydroxy-3-hydro-4-phthalazinone]
[1]
  inhibition at 1 µM: 47%
  inhibition at 2.5 µM: 71%
  inhibition at 5 µM: 82%

## NC(=O)c1cccnc1 [nicotinamide]
[6]
  recovery of the damaged cells: inhibit recovery of the damaged cells

## poly(ADP-ribose)polymerase (Homo sapiens)
[7]
  Km: 100 ± 13.7 µM
